Measured values from ChEMBL document CHEMBL1201862, “PubChem BioAssay data set” (2004).
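48-hour exposure; five concentrations; linearly interpolated endpoints. The concentration for 50% growth inhibition is given as GI50.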 Calls of active or inactive are those of the source. Cut-off read from the data, not from the text of the source: active = GI50 up to about 1.1 µM and inactive = higher. Where a SMILES comes first, the peptide text is derived from it. [ ]: non-standard residue; d: D form. The star is where a group is joined. NMeF = CN[C@@H](Cc1ccccc1)C(=O)O; NMeV = CN[C@H](C(=O)O)C(C)C; Boc = CC(C)(C)OC(=O)*; OBn = c1ccc(CO*)cc1

Key:
Test in all cases: DTP human tumour cell line panel, 48 h
M19-MEL = tested on: M19-MEL
DMS-273 = tested on: DMS-273
HOP-18 = tested on: HOP-18
KM-20L2 = tested on: KM-20L2
DLD-1 = tested on: DLD-1
SNB-78 = tested on: SNB-78
DMS-114 = tested on: DMS-114
XF498 = tested on: XF498
RXF 631 = tested on: RXF 631

Row | SMILES | GI50 (M19-MEL) | GI50 (DMS-273) | GI50 (HOP-18) | GI50 (KM-20L2) | GI50 (DLD-1) | GI50 (SNB-78) | GI50 (DMS-114) | GI50 (XF498) | GI50 (RXF 631)
1 | O=C(CCN1CCCCC1)Nc1ccc2c(c1)C(=O)c1ccc(NC(=O)CCN3CCCCC3)cc1C2=O | 43.1 µM (inactive) | 1.71 µM (inactive) | 17 µM (inactive) | 18 µM (inactive) | 2.92 µM (inactive) | 15.3 µM (inactive) | 17.6 µM (inactive) | – | –
2 | CN(C)C(=S)NC(=S)Nc1ccc2ccccc2c1 | – | 1.67 µM (inactive) | – | 10 µM (inactive) | – | 23.7 µM (inactive) | – | 16.1 µM (inactive) | –
3 | Cc1cc(N(CCC#N)CCC#N)ccc1CC1N=C(c2ccccc2)OC1=O (centres undefined) | > 100 µM (inactive) | > 100 µM (inactive) | – | > 100 µM (inactive) | > 100 µM (inactive) | – | > 100 µM (inactive) | > 100 µM (inactive) | > 100 µM (inactive)
4 | Cc1ccc(C)c2c1C1CCCCC3(OCCCO3)C21O (centres undefined) | > 100 µM (inactive) | > 100 µM (inactive) | 17.1 µM (inactive) | > 100 µM (inactive) | > 100 µM (inactive) | > 100 µM (inactive) | 80 µM (inactive) | – | –
5 | CCCCCC(=O)OC[n+]1ccc2c(C)c3[nH]c4ccccc4c3c(C)c2c1 | 1.02 µM (active) | 0.141 µM (active) | – | 0.612 µM (active) | 0.45 µM (active) | 0.995 µM (active) | 1.02 µM (active) | – | 0.408 µM (active)
6 | C/C(=N\NC(=O)CC(=O)Nc1ccc(C)cc1)c1cc2ccccc2oc1=O | > 100 µM (inactive) | > 100 µM (inactive) | 68.2 µM (inactive) | > 100 µM (inactive) | > 100 µM (inactive) | – | > 100 µM (inactive) | 1.67 µM (inactive) | –
7 | CN(C(=O)c1cccs1)C(=S)N1CCN(c2ccccn2)CC1 | > 100 µM (inactive) | > 100 µM (inactive) | > 100 µM (inactive) | > 100 µM (inactive) | > 100 µM (inactive) | > 100 µM (inactive) | > 100 µM (inactive) | > 100 µM (inactive) | –
8 | CN(CCS(=O)(=O)N1C(=O)C2CCCN2C(=O)[C@@H]1Cc1ccccc1)C(=O)OCc1ccccc1 (some centres undefined) | 62.1 µM (inactive) | – | > 100 µM (inactive) | 61.8 µM (inactive) | > 100 µM (inactive) | 92.7 µM (inactive) | 59.6 µM (inactive) | – | 56.2 µM (inactive)
9 | CCOC(=O)C1COc2cc(-c3cc(=O)c4ccccc4o3)ccc2O1 (centres undefined) | 29.7 µM (inactive) | > 100 µM (inactive) | – | > 100 µM (inactive) | 36.1 µM (inactive) | 51.1 µM (inactive) | 42.6 µM (inactive) | 30.6 µM (inactive) | –
10 | CN(C)CCN(C)CCC(=O)/C=C/c1ccccc1 | 20.2 µM (inactive) | 17.4 µM (inactive) | > 100 µM (inactive) | 56.2 µM (inactive) | 19.5 µM (inactive) | 31 µM (inactive) | 30.2 µM (inactive) | 22.2 µM (inactive) | –
11 | CC(C)(Oc1ccc(C(=O)c2ccc(Cl)cc2)cc1Cl)C(=O)Nc1c(Cl)cccc1Cl | > 100 µM (inactive) | > 100 µM (inactive) | > 100 µM (inactive) | > 100 µM (inactive) | > 100 µM (inactive) | > 100 µM (inactive) | 8.75 µM (inactive) | > 100 µM (inactive) | –
12 | O=c1sc(-c2nc3ccccc3[nH]2)c(/N=C/c2ccccc2)n1-c1ccccc1 | 94.2 µM (inactive) | 28.4 µM (inactive) | 67 µM (inactive) | – | > 100 µM (inactive) | 35.5 µM (inactive) | – | 31.2 µM (inactive) | –
13 | CC(=O)c1ccc(N2C(=O)C3c4[nH]c5ccccc5c4C4CCC(C(C)(C)C)CC4C3C2=O)cc1 (centres undefined) | 19.2 µM (inactive) | 17.7 µM (inactive) | 91.6 µM (inactive) | 18.7 µM (inactive) | 33.2 µM (inactive) | 19.6 µM (inactive) | 23.1 µM (inactive) | – | –
14 | C=CCC(N(C)C(=O)[C@H](Cc1ccccc1)NC(=O)OCc1ccccc1)P(=O)(Oc1ccccc1)Oc1ccccc1 (some centres undefined) | > 100 µM (inactive) | > 100 µM (inactive) | – | > 100 µM (inactive) | > 100 µM (inactive) | > 100 µM (inactive) | 5.62 µM (inactive) | > 100 µM (inactive) | –
15 | O=C1CCCCCCCCCCC(=O)N2CCOCCOCCN1Cc1cccc(n1)C2 | > 100 µM (inactive) | > 100 µM (inactive) | – | > 100 µM (inactive) | > 100 µM (inactive) | > 100 µM (inactive) | > 100 µM (inactive) | – | > 100 µM (inactive)
16 | Cc1c(C(=O)CC(=O)C(=O)Nc2cccc(C(F)(F)F)c2)[n+]([O-])c2ccccc2[n+]1[O-] | 1.82 µM (inactive) | 3.41 µM (inactive) | 11.2 µM (inactive) | 3.8 µM (inactive) | – | 6.79 µM (inactive) | 1.92 µM (inactive) | – | 2.84 µM (inactive)
17 | COc1ccc(CNc2cnc3ccc(N)cc3n2)cc1OC | 64.3 µM (inactive) | 41.3 µM (inactive) | 0.548 µM (active) | – | > 100 µM (inactive) | > 100 µM (inactive) | 47.3 µM (inactive) | > 100 µM (inactive) | –
18 | O=C(/C=C/c1ccco1)N1CCN(Cc2ccccc2)CC1 | > 100 µM (inactive) | > 100 µM (inactive) | > 100 µM (inactive) | > 100 µM (inactive) | > 100 µM (inactive) | > 100 µM (inactive) | > 100 µM (inactive) | > 100 µM (inactive) | > 100 µM (inactive)
19 | O=C(COc1ccc(Br)cc1Br)N1N=C(c2ccc([N+](=O)[O-])o2)CC1(O)c1ccccc1 (centres undefined) | – | 12.8 µM (inactive) | 8.75 µM (inactive) | 17.9 µM (inactive) | 10.7 µM (inactive) | 27.2 µM (inactive) | 6.11 µM (inactive) | – | –
20 | Cn1c2c(c3ccccc31)C1CCCCCCC1C1C(=O)OC(=O)C21 (centres undefined) | 37.4 µM (inactive) | 20 µM (inactive) | > 100 µM (inactive) | – | 33.6 µM (inactive) | > 100 µM (inactive) | 29.1 µM (inactive) | 43.6 µM (inactive) | 33.3 µM (inactive)
21 | CN(C)c1ccc(/C=C/c2ccc(/C=C/c3ccc(N(C)C)cc3)cc2)cc1 | > 100 µM (inactive) | > 100 µM (inactive) | > 100 µM (inactive) | > 100 µM (inactive) | 33.6 µM (inactive) | > 100 µM (inactive) | – | – | > 100 µM (inactive)
22 | Cc1cc(N(CCC#N)CCC#N)ccc1/C=C(\NC(=O)/C=C/c1ccccc1)C(=O)Nc1ccc(Cl)cc1 | 0.944 µM (active) | 0.982 µM (active) | > 100 µM (inactive) | – | 5.58 µM (inactive) | > 100 µM (inactive) | 1.62 µM (inactive) | > 100 µM (inactive) | > 100 µM (inactive)
23 | CC1C(=O)O[C@H]2C1CC[C@@]1(C)[C@H](O)CC[C@@]13C[C@]2(O)OO3 (some centres undefined) | > 100 µM (inactive) | > 100 µM (inactive) | > 100 µM (inactive) | > 100 µM (inactive) | > 100 µM (inactive) | – | > 100 µM (inactive) | – | –
24 | CC(=O)OC(C)(C)[C@@H]1CC[C@]2(C)/C=C/[C@H](C)C[C@@H](O)C3=C(C)C[C@@H](O3)C12 (some centres undefined) | > 100 µM (inactive) | > 100 µM (inactive) | > 100 µM (inactive) | > 100 µM (inactive) | > 100 µM (inactive) | > 100 µM (inactive) | > 100 µM (inactive) | – | > 100 µM (inactive)
25 | CC(C)[C@@H](C(=O)N1CCC[C@H]1C(=O)OCc1ccccc1)N(C)C(=O)[C@H](C(C)C)N(C)C(=O)[C@H](Cc1ccccc1)N(C)C(=O)[C@H](NC(=O)OC(C)(C)C)C(C)C (Boc-[dV][NMeF][NMeV][NMeV]P-OBn) | – | 24.3 µM (inactive) | > 100 µM (inactive) | – | 25.4 µM (inactive) | – | 19.6 µM (inactive) | – | –
